Test results as given in PMC11873635 (Acta Pharmaceutica Sinica. B, 2024).

Target: T1, human SMS2 (Homo sapiens, UniProt Q8NHU3)
T1 sequence (Q8NHU3 1-365): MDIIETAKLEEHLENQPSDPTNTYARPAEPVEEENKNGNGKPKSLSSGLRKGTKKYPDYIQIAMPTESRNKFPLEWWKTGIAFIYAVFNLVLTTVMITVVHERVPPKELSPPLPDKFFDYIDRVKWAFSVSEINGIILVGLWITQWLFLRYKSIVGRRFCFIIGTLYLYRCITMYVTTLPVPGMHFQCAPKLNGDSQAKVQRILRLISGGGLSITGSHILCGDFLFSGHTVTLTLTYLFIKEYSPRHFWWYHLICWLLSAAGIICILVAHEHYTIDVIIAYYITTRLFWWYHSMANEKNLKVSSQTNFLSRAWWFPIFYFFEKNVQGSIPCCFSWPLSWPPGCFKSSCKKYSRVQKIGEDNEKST
Experiment: purified SMS enzyme inhibitory assay in vitro
Type: biochemical
Conditions: not given

IC50 [nM]	SMILES
34	CCCCCCCCCCCCOc1ccccc1COc1ccsc1C(=O)Nc1cccnc1 [14p]
65	CCCCOc1ccccc1COc1ccsc1C(=O)Nc1cccnc1 [14h]
307	O=C(Nc1cccnc1)c1sccc1OCc1ccccc1Cl [14a]
15	CCCCCCCCOc1c(Cl)cccc1COc1ccsc1C(=O)Nc1cccnc1 [14q]
70	COc1ccccc1COc1ccsc1C(=O)Nc1cccnc1 [14e]
1790	O=C(Nc1cccnc1F)c1sccc1OCc1ccccc1 [7a]
78	CCOc1ccccc1COc1ccsc1C(=O)Nc1cccnc1 [14f]
67	CCCCCCOc1ccccc1COc1ccsc1C(=O)Nc1cccnc1 [14j]
111	CCCCCCCCOc1ccc(Cl)cc1COc1ccsc1C(=O)Nc1cccnc1 [14r]
400	O=C(Nc1cccnc1)c1sccc1OCc1ccccc1 [5a]
35	CCCCCCCCCOc1ccccc1COc1ccsc1C(=O)Nc1cccnc1 [14m]
199	O=C(Nc1cccnc1)c1sccc1OCc1cccc(Cl)c1 [14b]
31	CCCCCCCCCCOc1ccccc1COc1ccsc1C(=O)Nc1cccnc1 [14n]
103	CCCOc1ccccc1COc1ccsc1C(=O)Nc1cccnc1 [14g]
29	CCCCCCCCCCCOc1ccccc1COc1ccsc1C(=O)Nc1cccnc1 [14o]
29	CCCCCCCOc1ccccc1COc1ccsc1C(=O)Nc1cccnc1 [14k]
38800	O=C(Nc1cccnc1)c1sccc1OCc1ccc(Cl)cc1 [14c]
74	CCCCCOc1ccccc1COc1ccsc1C(=O)Nc1cccnc1 [14i]

Same assay, conditions: IC50, SMS1/IC50, SMS2

Selectivity ratio	SMILES
540	CCCCCCCCCCCCOc1ccccc1COc1ccsc1C(=O)Nc1cccnc1 [14p]
313	CCCCOc1ccccc1COc1ccsc1C(=O)Nc1cccnc1 [14h]
649	CCCCCCCCOc1c(Cl)cccc1COc1ccsc1C(=O)Nc1cccnc1 [14q]
2295	COc1ccccc1COc1ccsc1C(=O)Nc1cccnc1 [14e]
1004	CCOc1ccccc1COc1ccsc1C(=O)Nc1cccnc1 [14f]
85	CCCCCCOc1ccccc1COc1ccsc1C(=O)Nc1cccnc1 [14j]
70	CCCCCCCCOc1ccc(Cl)cc1COc1ccsc1C(=O)Nc1cccnc1 [14r]
547	O=C(Nc1cccnc1)c1sccc1OCc1ccccc1 [5a]
360	CCCCCCCCCOc1ccccc1COc1ccsc1C(=O)Nc1cccnc1 [14m]
409	CCCCCCCCCCOc1ccccc1COc1ccsc1C(=O)Nc1cccnc1 [14n]
477	CCCOc1ccccc1COc1ccsc1C(=O)Nc1cccnc1 [14g]
445	CCCCCCCCCCCOc1ccccc1COc1ccsc1C(=O)Nc1cccnc1 [14o]
459	CCCCCCCOc1ccccc1COc1ccsc1C(=O)Nc1cccnc1 [14k]
142	CCCCCOc1ccccc1COc1ccsc1C(=O)Nc1cccnc1 [14i]

Same assay, conditions: pIC50, SMS2 – ClogP

LLE	SMILES
0.64	CCCCCCCCCCCCOc1ccccc1COc1ccsc1C(=O)Nc1cccnc1 [14p]
3.14	CCCCOc1ccccc1COc1ccsc1C(=O)Nc1cccnc1 [14h]
2.90	O=C(Nc1cccnc1)c1sccc1OCc1ccccc1Cl [14a]
1.83	CCCCCCCCOc1c(Cl)cccc1COc1ccsc1C(=O)Nc1cccnc1 [14q]
4.04	COc1ccccc1COc1ccsc1C(=O)Nc1cccnc1 [14e]
2.31	O=C(Nc1cccnc1F)c1sccc1OCc1ccccc1 [7a]
3.67	CCOc1ccccc1COc1ccsc1C(=O)Nc1cccnc1 [14f]
2.52	CCCCCCOc1ccccc1COc1ccsc1C(=O)Nc1cccnc1 [14j]
1.01	CCCCCCCCOc1ccc(Cl)cc1COc1ccsc1C(=O)Nc1cccnc1 [14r]
3.33	O=C(Nc1cccnc1)c1sccc1OCc1ccccc1 [5a]
1.58	CCCCCCCCCOc1ccccc1COc1ccsc1C(=O)Nc1cccnc1 [14m]
3.02	O=C(Nc1cccnc1)c1sccc1OCc1cccc(Cl)c1 [14b]
1.39	CCCCCCCCCCOc1ccccc1COc1ccsc1C(=O)Nc1cccnc1 [14n]
3.18	CCCOc1ccccc1COc1ccsc1C(=O)Nc1cccnc1 [14g]
0.98	CCCCCCCCCCCOc1ccccc1COc1ccsc1C(=O)Nc1cccnc1 [14o]
2.37	CCCCCCCOc1ccccc1COc1ccsc1C(=O)Nc1cccnc1 [14k]
0.75	O=C(Nc1cccnc1)c1sccc1OCc1ccc(Cl)cc1 [14c]
2.62	CCCCCOc1ccccc1COc1ccsc1C(=O)Nc1cccnc1 [14i]

Same assay, conditions: read-out: SMS2 Inhibition @ 1 μmol/L (%)

inhibition at 1 µM [%]	SMILES
93	CCCCCCCCCCCCOc1ccccc1COc1ccsc1C(=O)Nc1cccnc1 [14p]
25	O=C(Nc1cccnn1)c1sccc1OCc1ccccc1 [7i]
12	Cc1cncc(NC(=O)c2sccc2OCc2ccccc2)c1 [7g]
85	CCCCOc1ccccc1COc1ccsc1C(=O)Nc1cccnc1 [14h]
64	O=C(Nc1cccnc1)c1sccc1OCc1ccccc1Cl [14a]
98	CCCCCCCCOc1c(Cl)cccc1COc1ccsc1C(=O)Nc1cccnc1 [14q]
82	COc1ccccc1COc1ccsc1C(=O)Nc1cccnc1 [14e]
41	O=C(Nc1cccnc1F)c1sccc1OCc1ccccc1 [7a]
83	CCOc1ccccc1COc1ccsc1C(=O)Nc1cccnc1 [14f]
88	CCCCCCOc1ccccc1COc1ccsc1C(=O)Nc1cccnc1 [14j]
91	CCCCCCCCOc1ccc(Cl)cc1COc1ccsc1C(=O)Nc1cccnc1 [14r]
66	O=C(Nc1cccnc1)c1sccc1OCc1ccccc1 [5a]
91	CCCCCCCCCOc1ccccc1COc1ccsc1C(=O)Nc1cccnc1 [14m]
68	O=C(Nc1cccnc1)c1sccc1OCc1cccc(Cl)c1 [14b]
92	CCCCCCCCCCOc1ccccc1COc1ccsc1C(=O)Nc1cccnc1 [14n]
78	CCCOc1ccccc1COc1ccsc1C(=O)Nc1cccnc1 [14g]
95	CCCCCCCCCCCOc1ccccc1COc1ccsc1C(=O)Nc1cccnc1 [14o]
91	CCCCCCCOc1ccccc1COc1ccsc1C(=O)Nc1cccnc1 [14k]
26	O=C(Nc1cccnc1)c1sccc1OCc1ccc(Cl)cc1 [14c]
86	CCCCCOc1ccccc1COc1ccsc1C(=O)Nc1cccnc1 [14i]

Target: T2, human SMS1 (Homo sapiens, UniProt Q86VZ5)
T2 sequence (Q86VZ5 1-413): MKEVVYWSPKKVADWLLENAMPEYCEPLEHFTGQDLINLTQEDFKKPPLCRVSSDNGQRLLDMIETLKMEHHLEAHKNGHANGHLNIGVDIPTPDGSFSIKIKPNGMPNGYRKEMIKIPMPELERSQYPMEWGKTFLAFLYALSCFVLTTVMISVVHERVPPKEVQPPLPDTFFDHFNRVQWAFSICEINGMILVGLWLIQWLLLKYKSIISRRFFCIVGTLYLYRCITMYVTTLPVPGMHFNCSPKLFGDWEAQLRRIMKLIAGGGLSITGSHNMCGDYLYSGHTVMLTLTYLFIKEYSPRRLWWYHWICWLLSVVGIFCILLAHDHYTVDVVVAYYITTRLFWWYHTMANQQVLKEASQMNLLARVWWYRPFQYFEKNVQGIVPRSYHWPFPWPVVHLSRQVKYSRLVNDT
Experiment: purified SMS enzyme inhibitory assay in vitro
Type: biochemical
Conditions: not given

IC50 [nM]	SMILES
18000	CCCCCCCCCCCCOc1ccccc1COc1ccsc1C(=O)Nc1cccnc1 [14p]
20000	CCCCOc1ccccc1COc1ccsc1C(=O)Nc1cccnc1 [14h]
10000	CCCCCCCCOc1c(Cl)cccc1COc1ccsc1C(=O)Nc1cccnc1 [14q]
160000	COc1ccccc1COc1ccsc1C(=O)Nc1cccnc1 [14e]
78000	CCOc1ccccc1COc1ccsc1C(=O)Nc1cccnc1 [14f]
6000	CCCCCCOc1ccccc1COc1ccsc1C(=O)Nc1cccnc1 [14j]
8000	CCCCCCCCOc1ccc(Cl)cc1COc1ccsc1C(=O)Nc1cccnc1 [14r]
219000	O=C(Nc1cccnc1)c1sccc1OCc1ccccc1 [5a]
13000	CCCCCCCCCOc1ccccc1COc1ccsc1C(=O)Nc1cccnc1 [14m]
13000	CCCCCCCCCCOc1ccccc1COc1ccsc1C(=O)Nc1cccnc1 [14n]
49000	CCCOc1ccccc1COc1ccsc1C(=O)Nc1cccnc1 [14g]
13000	CCCCCCCCCCCOc1ccccc1COc1ccsc1C(=O)Nc1cccnc1 [14o]
13000	CCCCCCCOc1ccccc1COc1ccsc1C(=O)Nc1cccnc1 [14k]
10000	CCCCCOc1ccccc1COc1ccsc1C(=O)Nc1cccnc1 [14i]

Same assay, conditions: read-out: SMS1 Inhibition @ 100 μmol/L (%)

inhibition at 100 µM [%]	SMILES
81	CCCCCCCCCCCCOc1ccccc1COc1ccsc1C(=O)Nc1cccnc1 [14p]
22	O=C(Nc1cccnn1)c1sccc1OCc1ccccc1 [7i]
28	Cc1cncc(NC(=O)c2sccc2OCc2ccccc2)c1 [7g]
81	CCCCOc1ccccc1COc1ccsc1C(=O)Nc1cccnc1 [14h]
56	O=C(Nc1cccnc1)c1sccc1OCc1ccccc1Cl [14a]
92	CCCCCCCCOc1c(Cl)cccc1COc1ccsc1C(=O)Nc1cccnc1 [14q]
33	COc1ccccc1COc1ccsc1C(=O)Nc1cccnc1 [14e]
53	O=C(Nc1cccnc1F)c1sccc1OCc1ccccc1 [7a]
56	CCOc1ccccc1COc1ccsc1C(=O)Nc1cccnc1 [14f]
93	CCCCCCOc1ccccc1COc1ccsc1C(=O)Nc1cccnc1 [14j]
85	CCCCCCCCOc1ccc(Cl)cc1COc1ccsc1C(=O)Nc1cccnc1 [14r]
20	O=C(Nc1cccnc1)c1sccc1OCc1ccccc1 [5a]
86	CCCCCCCCCOc1ccccc1COc1ccsc1C(=O)Nc1cccnc1 [14m]
60	O=C(Nc1cccnc1)c1sccc1OCc1cccc(Cl)c1 [14b]
87	CCCCCCCCCCOc1ccccc1COc1ccsc1C(=O)Nc1cccnc1 [14n]
74	CCCOc1ccccc1COc1ccsc1C(=O)Nc1cccnc1 [14g]
90	CCCCCCCCCCCOc1ccccc1COc1ccsc1C(=O)Nc1cccnc1 [14o]
90	CCCCCCCOc1ccccc1COc1ccsc1C(=O)Nc1cccnc1 [14k]
52	O=C(Nc1cccnc1)c1sccc1OCc1ccc(Cl)cc1 [14c]
88	CCCCCOc1ccccc1COc1ccsc1C(=O)Nc1cccnc1 [14i]
